Data taken from US20260185169A1, “MOLECULAR SIGNATURES TO PREDICT LONG-TERM LIVER FIBROSIS PROGRESSION” (THE BOARD OF REGENTS OF THE UNIVERSITY OF TEXAS SYSTEM, priority 2022, published 2026).

System: FPS and molecular pathways
Assay: Modulation of FPS and molecular pathways in hepatic transcriptome (RNA-Seq, CES/GSEI) in CENTAUR trial biopsies
Assay type: in vivo, human
Settings: for modulation of FPS genes: cenicriviroc arm
Description: Archived formalin-fixed liver tissues from index biopsy were used for histological assessment in all patients (FIG. 1 and Table 1A-11) to confirm no to minimal fibrosis (METAVIR fibrosis stage F0 or F1). The PLS validation set 1 (and FPS derivation set 1) is a case-control series of 43 chronic hepatitis C patients from a prior cohort study consecutively diagnosed and followed at Johns Hopkins and Massachusetts General Hospital between 1998 and 2010. Twenty-five patients were co-infected with HIV and on anti-retroviral therapies. The patients were regularly followed up with ultrasound elastography at median interval of 1.1 (IQR: 0.6-2.0) years. Liver stiffness measurement >7.0 and >9.5 kPa were regarded as indication of F2 and F3 fibrosis, respectively. The PLS validation set 2 (and FPS derivation set 2) is a case-control series of 38 patients who consecutively underwent liver transplantation for HCV-related cirrhosis and protocol liver biopsies at year 1, 2, and 5 after transplantation (and additional biopsies as needed to evaluate graft rejection, which were excluded) at Baylor University between 2002 and 2007. Median number of biopsies was 8 (IQR: 6-9) per patient with median interval between serial biopsies of 8.6 (IQR: 0.3-12.6) months. […] The FPS derivation set 3 is a cross-sectional series of 31 NAFLD patients who underwent diagnostic liver biopsy at Hiroshima University between 2003 and 2015. The FPS derivation set 4 is a cross-sectional series of 309 NAFLD patients who underwent diagnostic liver biopsy (F0 or F1 fibrosis) at Massachusetts General Hospital between 2009 and 2016. […] The cases were defined as patients who had F-stage increase of one stage or more in the follow-up biopsy. The FPS validation set 2 includes 78 patients with fibrotic liver diseases from various etiologies, for which de-identified fresh liver tissues were available from standard-care hepatic resection for organotypic ex vivo tissue culture at University of Texas Southwestern and Mount Sinai. The FPS validation set 3 consists of NASH patients with F1-F3 fibrosis who underwent liver biopsy before and after 1-year treatment with cenicriviroc (n=9) or placebo (n=10) in the phase Ilb CENTAUR trial (NCT02217475). Decrease of one or more fibrosis stage was regarded as anti-fibrotic response. The serum surrogate FPS was assessed in archived de-identified serum samples from 79 patients with chronic liver diseases. The FPSec validation set is a cohort of 122 patients with compensated (Child-Pugh class A) cirrhosis patients with mixed etiologies enrolled at University of Michigan between 2004 and 2006 as reported in our previous study. Hepatic decompensation was defined as newly developed massive ascites, hepatic encephalopathy, bleeding from gastroesophageal varices, or liver transplantation. The study was approved by institutional review board at respective institutions with written informed consent or exemption for use of archived de-identified samples (protocol numbers: STU062018-058, STU072018-071, 2010P000220/PHS, HS13-00159).
Total RNA was isolated from fixed tissue sections by using High Pure RNA Paraffin kit (Roche), and assessed for quality by qRT-PCR of RPL13A. Total RNA from the PCLS tissues was isolated using RNeasy kit (Qiagen). RNA samples (100-200 ng) were subjected to the PLS/FPS assay implemented in the nCounter platform (NanoString), and transcriptome profiling of the CENTAUR trial samples was performed by RNA-Seq (TrueSeq RNA Access, Illumina). Expression of BCL2, COL1A1, and ACTA2 genes was measured by qRT-PCR (Table 3). Serum protein profiling was performed by using xMAP assay (Luminex). […]

[1] = Fibrosis not improved, NASH patients, Hallmark set, Cellular signaling
[2] = Fibrosis not improved, NASH patients, Hallmark set, Inflammatory response, immunity
[3] = Fibrosis not improved, NASH patients, Hallmark set, Metabolism, biosynthesis
[4] = Fibrosis not improved, NASH patients, Hallmark set, Pathogenic response
[5] = Fibrosis not improved, NASH patients, Hallmark set, Sex hormone signaling
[6] = Fibrosis not improved, NASH patients, Hallmark set, Stress response
[7] = Fibrosis not improved, NASH patients, Immune cell signature (GSE65136)
[8] = Fibrosis not improved, NASH patients, Nuclear receptor signaling (curated pathway members)
[9] = Fibrosis not improved, NASH patients, PPAR agonists on mouse primary hepatocytes (GSE27948)

With CCCCOCCOc1ccc(-c2ccc3c(c2)/C=C(/C(=O)Nc2ccc([S@@+]([O-])Cc4cncn4CCC)cc2)CCCN3CC(C)C)cc1 [Cenicriviroc] the “NES, Mitotic spindle gene set” value (Fibrosis not improved, NASH patients, Hallmark set, Cell cycle, DNA damage, response) was 0.82, the “NES, Apoptosis gene set” value (Fibrosis not improved, NASH patients, Hallmark set, Cell death) was 1.38 and the “NES, E2F targets gene set” value [1] was 1.88. For the same molecule, the “NES, Hedgehog signaling gene set” value [1] was 1.05, the “NES, KRAS signaling gene set” value [1] was 1.63 and the “NES, Myc targets v1 gene set” value [1] was 2.19. For the same molecule, the “NES, Myc targets v2 gene set” value [1] was 1.55, the “NES, Notch signaling gene set” value [1] was 0.84 and the “NES, PI3K/AKT/mTOR signaling gene set” value [1] was 1.43. The “NES, TGFβ signaling gene set” value [1] was −0.70, the “NES, TNFα signaling via NF-κB gene set” value [1] was 0.96 and the “NES, Wnt/β-catenin signaling gene set” value [1] was 0.87. The “NES, mTORC1 signaling gene set” value [1] was 1.93, the “NES, p53 pathway gene set” value [1] was 1.03 and the “NES, Allograft rejection gene set” value [2] was 2.25. The “NES, IL2 STAT5 signaling gene set” value [2] was 1.70, the “NES, IL6 JAK STAT3 signaling gene set” value [2] was 1.82 and the “NES, Inflammatory response gene set” value [2] was 1.61. The “NES, Interferon-α response gene set” value [2] was 0.83, the “NES, Interferon-γ response gene set” value [2] was 1.39 and the “NES, Adipogenesis gene set” value [3] was −0.72. The “NES, Bile acid metabolism gene set” value [3] was −1.36, the “NES, Cholesterol homeostasis gene set” value [3] was 0.99 and the “NES, Coagulation gene set” value [3] was 1.33. The “NES, Complement gene set” value [3] was 1.37, the “NES, Fatty acid metabolism gene set” value [3] was 0.73 and the “NES, Glycolysis gene set” value [3] was 1.43. The “NES, Heme metabolism gene set” value [3] was −0.95, the “NES, Oxidative phosphorylation gene set” value [3] was 1.16 and the “NES, Peroxisome gene set” value [3] was −1.03. The “NES, Protein secretion gene set” value [3] was 1.30, the “NES, Xenobiotic metabolism gene set” value [3] was 0.79 and the “NES, Angiogenesis gene set” value [4] was 1.64. For the same molecule, the “NES, Epithelial mesenchymal transition gene set” value [4] was 1.98, the “NES, Androgen response gene set” value [5] was 1.63 and the “NES, Estrogen response early gene set” value [5] was 1.07. For the same molecule, the “NES, Estrogen response late gene set” value [5] was 1.18, the “NES, Hypoxia gene set” value [6] was 1.67 and the “NES, Myogenesis gene set” value [6] was 1.73. For the same molecule, the “NES, Reactive oxygen species gene set” value [6] was 1.24, the “NES, UV response up gene set” value [6] was 1.24 and the “NES, Unfolded protein response gene set” value [6] was 1.41. For the same molecule, the “NES, B cell (naïve) gene set” value [7] was 1.70, the “NES, CD4 T cell (naïve) gene set” value [7] was 1.93 and the “NES, CD8 T cell gene set” value [7] was 2.31. For the same molecule, the “NES, DC (activate) gene set” value [7] was 1.75, the “NES, Gamma delta T cell gene set” value [7] was 1.86 and the “NES, Macrophage (M1) gene set” value [7] was 1.70. For the same molecule, the “NES, Macrophage (M2) gene set” value [7] was 1.74, the “NES, Mast cell (active) gene set” value [7] was 1.50 and the “NES, Mast cell (rest) gene set” value [7] was 1.71. For the same molecule, the “NES, Memory B cell gene set” value [7] was 1.67, the “NES, Memory T cell (rest) gene set” value [7] was 2.25 and the “NES, Monocyte gene set” value [7] was 1.50. The “NES, NK cell (rest) gene set” value [7] was 1.76, the “NES, Neutrophil gene set” value [7] was 1.42 and the “NES, Plasma cell gene set” value [7] was 1.46. For the same molecule, the “NES, Regulatory T cell gene set” value [7] was 1.99, the “NES, T follicular helper cell gene set” value [7] was 1.85 and the “NES, FXR pathway gene set” value [8] was −1.04. For the same molecule, the “NES, PPAR signaling gene set (first listed)” value [8] was −0.88, the “NES, PPAR signaling gene set (second listed)” value [8] was −1.00 and the “NES, PPARα pathway gene set (first listed)” value [8] was −0.62. The “NES, PPARα pathway gene set (second listed)” value [8] was −0.77, the “NES, RAR/RXR pathway gene set” value [8] was −1.49 and the “NES, RXR/VDR pathway gene set” value [8] was −1.71. The “NES, GW7647 (PPARa agonist) gene set” value (Fibrosis not improved, NASH patients, PPAR agonist on human primary hepatocytes (GSE53399)) was −1.56, the “NES, GW501516 (PPARd agonist) gene set” value [9] was −0.92 and the “NES, ROSIGLITAZONE (PPARg agonist) gene set” value [9] was −1.19. The “NES, WY14643 (PPARa agonist) gene set” value [9] was 1.17, the “NES, PDGFRB target gene signature” value (Fibrosis not improved, NASH patients, iLINCS) was −0.79 and the “modulation of RXR, RAR and FXR pathways” value (both responders and non-responders) was “no obvious induction”. For the same molecule, the “modulation of FPS genes” value (patients with histological fibrosis improvement) was “suppressed or unchanged”, the “modulation of FPS genes” value (patients with no fibrosis improvement) was “generally induced” and the “modulation of PPAR pathways” value (fibrosis responders after 1-year treatment, non-responders lack it) was “enrichment”. The “modulation of E2F signaling” value (fibrosis responders only) was “most strikingly suppressed” and the “PPAR α target gene signature (vs δ and γ agonist signatures)” value (transcriptional target gene signatures defined in mouse primary hepatocyte) was “dominantly induced”.
